Data on one compound can be found in patent publication US11866707B2, “Use of non-coding RNA SNHG17 as biomarker and therapeutic target” (ZHEJIANG CANCER HOSPITAL, priority 2022, dated 2024).

For assay [1], the system named is SNHG17-overexpressing breast cancer cells (MCF-7). The assay can be described thus: Plate colony formation experiment, fulvestrant resistance of SNHG17-overexpressing cells. It counts as cell-based, human. The conditions noted are these: medium containing 6 μmol/L fulvestrant, 15 days; SNHG17-overexpressing cells vs SNHG17-overexpressing control cells (FIG. 4). Here is the method:
The above-mentioned SNHG17-overexpressing control breast cancer cells and SNHG17-overexpressing breast cancer cells were selected for experiments to detect the drug resistance to fulvestrant. 1000 well-grown cells were inoculated into a culture plate (diameter 60 mm) containing DMEM complete medium, then gently shook the culture plate to disperse the cells evenly. The cells were incubated at 37° C., 5V/V % CO2 for 15 days, and replaced complete medium every 3 days. When colonies were visible to the naked eye in the culture dish, the culture was terminated and the culture medium was discarded. After that, the cells were carefully washed twice by PBS and dried. Methanol was used for anchor cells for 15 min, then the methanol was discarded and cells were air-dried. Cells were stained with Giemsa staining solution (purchased from Merck) for 10 min, then the staining solution was slowly washed away with running water, and cells were air-dried. Experiments were divided into blank group (SNHG17-overexpressing control breast cancer stable cells, medium containing 6 μmol/L DMSO), control group (SNHG17-overexpressing control breast cancer cells, medium containing 6 μmol/L fulvestrant), overexpression group (SNHG17-overexpressing breast cancer cells, medium containing 6 μmol/L fulvestrant) 3 groups. […]

Assay [2] has the same test system. Nature of the assay: Sensitivity detection of breast cancer cells to fulvestrant (MTT). The conditions noted are these: fulvestrant 2, 4, 8, 16 μmol/L, 48 h, SNHG17-overexpressing cells vs control cells (FIG. 5). Format: cell-based, human. The procedure:
MCF-7 and SNHG17 overexpressing breast cancer cells in the logarithmic growth phase were inoculated into 96-well plates (with DMEM complete medium) at a density of 3000 cells per well. Then cells were cultured in a 37° C. 5V/V % CO2 incubator until the cells adhered to the plates. Then added fulvestrant respectively, and the final concentration was 0 (cell control group), 2, 4, 8, and 16 μmol/L. Each concentration was set in 4 duplicate wells, and a blank control group was set at the same time. After being cultured for 48 hours in a 37° C., 5V/V % CO2 incubator, 20 μL of MTT (5 g/L) solution was added to each well. After culturing for 4 hours, discarded the medium and added triple solution (10 g SDS, 5 mL of isobutanol, 0.1 mL of 10M hydrochloric acid, and ddH2O to make a 100 mL solution) and incubated overnight. Then the absorbance (A570 nm) value was measured at 570 nm with an enzyme calibration. The triple solution was used as a blank control group to detect the cells' survival rate. Growth inhibition rate (%)=(control group A570 nm—experimental group A570 nm)/cell control group A570 nm×100%. The growth inhibition rate of fulvestrant on breast cancer cells is shown in FIG. 5, wherein C stands for SNHG17-overexpressing control breast cancer cells, D stands for SNHG17-overexpressing breast cancer cells, *P<0.05, **P<0.01 indicates the data had statistical significance.

In the case of `C[C@]12CC[C@@H]3c4ccc(O)cc4C[C@@H](CCCCCCCCC[S+]([O-])CCCC(F)(F)C(F)(F)F)[C@H]3[C@@H]1CC[C@@H]2O` (some centres unmarked) [fulvestrant], the “number of colonies formed” value in assay [1] was “greater than that of SNHG17-overexpressing control breast cancer cells”. Also, the “growth inhibition rate of fulvestrant on breast cancer cells” value in assay [2] was “significantly greater than that in SNHG17-overexpressing control breast cancer cells”.
